Experimental data reported in patent US8258138B2, “Potassium channel blockers” (Xention Limited, priority 2008, dated 2012).

Experiments:
human Kv1.3 = biological target: T1, human Kv1.3 (Homo sapiens, UniProt P22001); assay: Kv1.3 Autopatch electrophysiology (whole cell patch-clamp, inhibition of charge movement); type: cell-based; settings: compound at 1 μM; cells stably transfected with human Kv1.3; room temperature; total charge during step to +30 mV relative to control; read-out: hKv1.3 % inh.
T1 construct: expressed in transfected cells; host or cells: stably transfected cells grown in medium for CHO cells
T1 sequence (P22001 whole entry): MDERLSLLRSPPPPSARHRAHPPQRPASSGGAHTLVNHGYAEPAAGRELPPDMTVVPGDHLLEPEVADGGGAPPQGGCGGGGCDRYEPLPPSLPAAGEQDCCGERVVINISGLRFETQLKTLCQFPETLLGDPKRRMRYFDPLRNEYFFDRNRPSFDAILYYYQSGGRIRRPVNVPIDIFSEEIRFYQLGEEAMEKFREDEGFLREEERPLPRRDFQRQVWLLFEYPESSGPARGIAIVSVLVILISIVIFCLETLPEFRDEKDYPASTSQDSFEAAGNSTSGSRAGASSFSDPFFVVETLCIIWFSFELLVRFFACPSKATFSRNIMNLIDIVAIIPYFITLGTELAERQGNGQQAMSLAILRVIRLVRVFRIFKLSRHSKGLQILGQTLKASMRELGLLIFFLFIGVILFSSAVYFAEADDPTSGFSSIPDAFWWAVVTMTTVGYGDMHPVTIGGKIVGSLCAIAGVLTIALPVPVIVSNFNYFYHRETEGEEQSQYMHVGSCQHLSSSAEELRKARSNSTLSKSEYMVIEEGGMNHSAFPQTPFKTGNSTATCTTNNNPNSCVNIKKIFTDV
Summary of the method: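 Whole-cell AutoPatch recordings were made at room temperature from cells held at −80 mV, with 500 ms steps to +30 mV every 15 s. The bath contained 10 mM KCl, pH 7.4, and the pipette K-gluconate/EGTA, pH 7.2.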

hKv1.5 = hKv1.5 (Homo sapiens, UniProt P22460); assay: Kv1.5 Autopatch electrophysiology (whole cell patch-clamp); type: cell-based; settings: compound at 1 μM; room temperature (22-24° C.); total charge during step to 0 mV; read-out: hKv1.5 % inh.
Chain of hKv1.5 (P22460 whole entry): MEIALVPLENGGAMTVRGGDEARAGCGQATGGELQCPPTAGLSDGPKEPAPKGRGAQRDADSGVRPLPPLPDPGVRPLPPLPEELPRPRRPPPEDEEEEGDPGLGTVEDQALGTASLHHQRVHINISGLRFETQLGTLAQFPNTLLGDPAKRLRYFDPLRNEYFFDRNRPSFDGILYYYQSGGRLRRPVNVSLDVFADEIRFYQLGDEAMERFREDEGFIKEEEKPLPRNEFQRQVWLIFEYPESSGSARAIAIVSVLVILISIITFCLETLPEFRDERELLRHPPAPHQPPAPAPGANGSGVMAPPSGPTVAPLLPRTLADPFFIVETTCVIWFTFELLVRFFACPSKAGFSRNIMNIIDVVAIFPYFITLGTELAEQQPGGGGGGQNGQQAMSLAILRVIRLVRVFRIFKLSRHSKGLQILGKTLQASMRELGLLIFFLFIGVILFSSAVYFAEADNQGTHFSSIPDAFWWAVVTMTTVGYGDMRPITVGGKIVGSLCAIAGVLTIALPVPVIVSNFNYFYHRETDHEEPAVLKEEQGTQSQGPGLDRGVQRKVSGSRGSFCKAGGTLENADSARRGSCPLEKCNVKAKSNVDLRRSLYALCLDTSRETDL
Procedure: Kv1.5 Autopatch Electrophysiology Method
The external bathing solution contained (in mM): 150 NaCl, 10 KCl, […], 3 MgCl2, 1 CaCl2, 10 HEPES, pH 7.4. Patch pipettes were filled with an electrode solution of composition (in mM): 160 KCl, 0.5 MgCl2, 10 HEPES, 1 EGTA, pH 7.4 with KOH.
Compounds were dissolved in DMSO (100%) and made up in the external bather at a concentration of 1 μM. All experiments were conducted at room temperature (22-24° C.).
A cell suspension (10 ml), with a density of 100,000 cells/ml, was aliquoted into a 15 ml centrifuge tube and transferred to an incubator (37° C., 5% CO2) for approximately one hour before use. Following 60 min incubation, a tube was taken and centrifuged at 1000 rpm for 4 mins at room temperature. 9.5 ml supernatant was thence discarded, leaving a cell pellet at the bottom of the tube. The pellet was then resuspended using 100 μl of cold (4° C.), filtered (0.22 μm), 0.2% BSA/bather solution (0.02 g BSA/10 ml bather). The bottom of the tube was manually agitated gently until the solution became cloudy with cells. The 100 μl cell resuspension solution was then stored on the bench at 4° C. (using a Peltier-based temperature control device) until used.
A length of capillary glass (1B150F-4, WPI) was dipped into the cell suspension solution, such that ˜3 cm column of fluid was taken up by capillary action. A Ag/AgCl wire was dropped into the non-dipped end of the capillary also. The outside of the solution-filled end of the capillary was then dried and the capillary was loaded into the AutoPatch™.
Borosilicate glass patch pipettes (from 1.5 mm OD, thin-walled filamented, GC150-TF capillary glass, Harvard) were pulled using a DMZ pipette puller (Zeitz Instruments), and were back-filled using the internal pipette solution, being careful that no bubbles remain at the tip or in the body of the pipette. Patch pipettes typically had resistances of 2.3-3.5 MΩ. Once filled, the pipette tip and a proportion of the shaft (˜15 mm) were dipped into Sigmacote (Sigma). The recording pipette was then loaded into the AutoPatch™ Automated patch-clamping was initiated by the operator, but thereafter AutoPatch.exe continued the experiment providing that pre-set conditions and criteria were satisfied.
Whole cell patch-clamp recordings were made using the AutoPatch™ rig, which incorporated an EPC9 amplifier (HEKA, Germany) under control of Pulse software (v8.54, HEKA, Germany), a motion controller with 2 translators (Newport, UK), valve controller (VF1) and a c-level suction device all at room temperature (22-24° C.). This equipment was completely under the control of AutoPatch.exe and operator intervention was only made when there was a requirement to refill the drug reservoirs or to prevent the loss of a cell due to a technical error. Cells with an Rseries greater than 18 MΩ were discounted from the experiment.
Qualification stages prior to perfusion and drug application ensured that the observed current met the criteria for the experiment. Only those cells with an IK>500 pA were used for experiments. Cells were continuously perfused with external solution at a flow rate of 1.8-2 ml/minute. […] Online analysis of the hKv1.5 current during the application of compounds was performed by the AutoPatch™ software. Voltage-step protocols and analysis of data was performed as described for conventional electrophysiology.
Electrophysiology voltage-step protocols and analysis of data was performed as follows. Data was sampled at 5 kHz, and filtered with a −3 dB bandwidth of 2.5 kHz. Cells were held at a voltage of −80 mV. Currents were evoked to a voltage step for 1000 ms in duration at 0 mV every 5 s. Currents were analysed using Pulsefit software (v8.54, HEKA, Germany), with the total charge measured during the whole of the voltage step. All other plots were produced using Igor Pro (WaveMetrics).

SMILES	inhibition at 1 µM (human Kv1.3)	inhibition at 1 µM (hKv1.5)
Cc1ccccc1S(=O)(=O)N(Cc1ccccc1)c1ccc(C(=O)N2CCN(c3ccccc3)CC2)cc1 [Example 26, N-Benzyl-2-methyl-N-[4-(4-phenyl-piperazine-1-carbonyl)-phenyl]-benzenesulfonamide]	82%	85.5%
COc1cccc(S(=O)(=O)N(Cc2ccccc2)c2ccc(C(=O)N3CCN(c4ccccc4)CC3)cc2)c1 [Example 28, N-Benzyl-3-methoxy-N-[4-(4-phenyl-piperazine-1-carbonyl)-phenyl]-benzenesulfonamide]	74%	81.2%
O=C(c1ccc(N(Cc2ccccc2)S(=O)(=O)c2cc(Cl)cc(Cl)c2)cc1)N1CCN(c2ccccc2)CC1 [Example 29, N-Benzyl-3,5-dichloro-N-[4-(4-phenyl-piperazine-1-carbonyl)-phenyl]-benzenesulfonamide]	70%	75.3%
O=C(c1ccc(N(Cc2ccccc2)S(=O)(=O)c2cccc(Cl)c2)cc1)N1CCN(c2ccccc2)CC1 [Example 30, N-Benzyl-3-chloro-N-[4-(4-phenyl-piperazine-1-carbonyl)-phenyl]-benzenesulfonamide]	92%	85.6%
O=C(c1ccc(N(Cc2cccc(F)c2)S(=O)(=O)c2ccccc2)cc1)N1CCN(c2ccccc2)CC1 [Example 31, N-(3-Fluoro-benzyl)-N-[4-(4-phenyl-piperazine-1-carbonyl)-phenyl]-benzenesulfonamide]	67%	61.6%
COc1ccccc1CN(c1ccc(C(=O)N2CCN(c3ccccc3)CC2)cc1)S(=O)(=O)c1ccccc1 [Example 32, N-(2-Methoxy-benzyl)-N-[4-(4-phenyl-piperazine-1-carbonyl)-phenyl]-benzenesulfonamide]	68%	44.2%
COc1cccc(CN(c2ccc(C(=O)N3CCN(c4ccccc4)CC3)cc2)S(=O)(=O)c2ccccc2)c1 [Example 33, N-(3-Methoxy-benzyl)-N-[4-(4-phenyl-piperazine-1-carbonyl)-phenyl]-benzenesulfonamide]	56%	55.7%
Cc1ccc(CN(c2ccc(C(=O)N3CCN(c4ccccc4)CC3)cc2)S(=O)(=O)c2ccccc2)cc1 [Example 35, N-(4-Methyl-benzyl)-N-[4-(4-phenyl-piperazine-1-carbonyl)-phenyl]-benzenesulfonamide]	56%	68.9%
CC1(C)CCc2cc(S(=O)(=O)N(Cc3ccccc3)c3ccc(C(=O)N4CCN(c5ccccc5)CC4)cc3)ccc2O1 [Example 39, 2,2-Dimethyl-chroman-6-sulfonic acid benzyl-[4-(4-phenyl-piperazine-1-carbonyl)-phenyl]-amide]	47%	58.9%
O=C(c1ccc(N(Cc2ccccc2)S(=O)(=O)c2ccc([N+](=O)[O-])cc2)cc1)N1CCN(c2ccccc2)CC1 [Example 40, N-Benzyl-4-nitro-N-[4-(4-phenyl-piperazine-1-carbonyl)-phenyl]-benzenesulfonamide]	62%	62.4%
CCc1ccc(S(=O)(=O)N(Cc2ccccc2)c2ccc(C(=O)N3CCN(c4ccccc4)CC3)cc2)cc1 [Example 42, N-Benzyl-4-ethyl-N-[4-(4-phenyl-piperazine-1-carbonyl)-phenyl]-benzenesulfonamide]	76%	66.4%
Cc1ccc(CN(c2ccc(C(=O)N3CCN(c4ccccc4)CC3)cc2)S(=O)(=O)c2cn(C)cn2)cc1 [Example 43, 1-Methyl-1H-imidazole-4-sulfonic acid (4-methyl-benzyl)-[4-(4-phenyl-piperazine-1-carbonyl)-phenyl]-amide]	78%	46.4%

Continued, values first:

inhibition at 1 µM (human Kv1.3)	inhibition at 1 µM (hKv1.5)	SMILES
76%	43.6%	Cn1cnc(S(=O)(=O)N(Cc2cccc(F)c2)c2ccc(C(=O)N3CCN(c4ccccc4)CC3)cc2)c1 [Example 44, 1-Methyl-1H-imidazole-4-sulfonic acid (3-fluoro-benzyl)-[4-(4-phenyl-piperazine-1-carbonyl)-phenyl]-amide]
66%	62.9%	Cc1nn(C)cc1S(=O)(=O)N(Cc1ccccc1)c1ccc(C(=O)N2CCN(c3ccccc3)CC2)cc1 [Example 46, 1,3-Dimethyl-1H-pyrazole-4-sulfonic acid benzyl-[4-(4-phenyl-piperazine-1-carbonyl)-phenyl]-amide]
79%	49.3%	Cc1nc(C)c(S(=O)(=O)N(Cc2ccccc2)c2ccc(C(=O)N3CCN(c4ccccc4)CC3)cc2)s1 [Example 48, 2,4-Dimethyl-thiazole-5-sulfonic acid benzyl-[4-(4-phenyl-piperazine-1-carbonyl)-phenyl]-amide]
76%	50%	Cc1cc(C(=O)N2CCN(c3ccccc3)CC2)ccc1N(Cc1ccccc1)S(=O)(=O)c1cn(C)cn1 [Example 49, 1-Methyl-1H-imidazole-4-sulfonic acid benzyl-[2-methyl-4-(4-phenyl-piperazine-1-carbonyl)-phenyl]-amide]
69%	56.8%	Cn1cnc(S(=O)(=O)N(Cc2ccccc2)c2ccc(C(=O)N3CCN(c4ccccc4)CC3)cc2F)c1 [Example 50, 1-Methyl-1H-imidazole-4-sulfonic acid benzyl-[2-fluoro-4-(4-phenyl-piperazine-1-carbonyl)-phenyl]-amide]
42%	57.5%	COc1cccc(CN(c2ccc(C(=O)N3CCN(c4ccccc4)CC3)cc2)S(=O)(=O)c2ccccc2)c1OC [Example 51, N-(2,3-Dimethoxy-benzyl)-N-[4-(4-phenyl-piperazine-1-carbonyl)-phenyl]-benzenesulfonamide]
67%	93.6%	Cc1cc(N(Cc2ccccc2)S(=O)(=O)c2ccccc2)ccc1C(=O)N1CCN(c2ccccc2)CC1 [Example 52, N-Benzyl-N-[3-methyl-4-(4-phenyl-piperazine-1-carbonyl)-phenyl]-benzenesulfonamide]
42%	93.8%	O=C(c1ccc(N(Cc2ccccc2)S(=O)(=O)c2ccccc2)c(F)c1)N1CCN(c2ccccc2)CC1 [Example 53, N-Benzyl-N-[2-fluoro-4-(4-phenyl-piperazine-1-carbonyl)-phenyl]-benzenesulfonamide]
92%	89.6%	COc1cc(N(Cc2ccccc2)S(=O)(=O)c2ccccc2)ccc1C(=O)N1CCN(c2ccccc2)CC1 [Example 54, N-Benzyl-N-[3-methoxy-4-(4-phenyl-piperazine-1-carbonyl)-phenyl]-benzenesulfonamide]
81%	50.1%	O=C(c1ccc(N(Cc2ccccc2)S(=O)(=O)c2ccccc2)cc1)N1CCc2ccccc2C1 [Example 55, N-Benzyl-N-[4-(3,4-dihydro-1H-isoquinoline-2-carbonyl)-phenyl]-benzenesulfonamide]
47%	45.2%	COc1ccc(C2CCCN(C(=O)c3ccc(N(Cc4ccc(Cl)cc4)S(=O)(=O)c4ccccc4)cc3)C2)cc1 (stereo not shown) [Example 57, N-(4-Chloro-benzyl)-N-{4-[3-(4-methoxy-phenyl)-piperidine-1-carbonyl]-phenyl}-benzenesulfonamide]
